Series [1] concerns the target dipeptidyl peptidase (DP IV) (UniProt P27487). Nature of the series: Determination of IC50 against DP IV (hydrolysis of Gly-Pro-pNA). It counts as biochemical, porcine kidney or recombinant human. Conditions: compounds obtained by preparative synthesis. The method, boiled down:
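Porcine kidney or recombinant human DP IV (about 40–50 μU/ml) in HEPES pH 7.6 (I=0.32) with Gly-Pro-pNA at room temperature, 5% DMSO, 11 twofold dilutions from 100 μM final. pNA release at 405 nm over ~18 min; slopes give residual activity versus solvent, IC50 by 4-parameter fit.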

In series [2] the target is T1, DP IV (Homo sapiens, UniProt P27487). In words: Ki and inhibition type, DP IV. The following applies: compounds obtained by preparative synthesis. The series is classed as biochemical. The method, boiled down:
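Ki by non-linear regression of 7 inhibitor dilutions (range from IC50) against 4 substrate dilutions, in triplicate, using purified human recombinant enzyme under IC50 assay conditions. Inhibition type assigned from the best-fitting equation (competitive, partial competitive, non-competitive); […].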

Series [3] deals with neuroblastoma cell line SY5Y. Nature of the series: LD50 determination on SY5Y (LDH). It counts as cell-based. The following applies: 8 serial dilutions, highest concentration 1 mM.
Series [4] in a line: Caco-2 transport assay. It counts as in vitro ADME, human. Conditions: human, Caco-2, pH 7.5; for Papp A→B: apical to basal; for Papp B→A: basal to apical.
Series [5] has as its system Caco-2 monolayer. In words: Caco-2 transport assay. The following applies: assessment of permeability and transport type. It counts as in vitro ADME, human. (In general: Passage across Caco-2 layers is used to estimate intestinal permeability.)
Series [6] has as its target T1, DP IV. Nature of the series: DP IV inhibition IC50, parallel-synthesis compounds tested directly following synthesis (without purification). The series is classed as biochemical. On the set-up: IC50 DP4; other: tested directly following parallel synthesis, without purification; compounds of formula (Ib) from parallel synthesis, tested directly following synthesis. Conditions: DP IV inhibition; compounds of formula (Ib) from parallel synthesis, tested directly following synthesis (without purification); read-out: IC50. A digest of the protocol: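 Porcine kidney or recombinant human enzyme (~40-50 μU/ml, HEPES buffer) hydrolysing Gly-Pro-pNA at room temperature, with 5% DMSO final; 11-point 1:2 dilutions from 100 μM final, in duplicate. pNA release read at 405 nm over ~18 min; slopes vs solvent control give residual activity, and IC50 comes from a 4-parameter fit.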

The record followed here is US7728146B2, “Enzyme inhibitors” (Probiodrug AG, priority 2006, dated 2010).

T1 sequence (P27487 whole entry): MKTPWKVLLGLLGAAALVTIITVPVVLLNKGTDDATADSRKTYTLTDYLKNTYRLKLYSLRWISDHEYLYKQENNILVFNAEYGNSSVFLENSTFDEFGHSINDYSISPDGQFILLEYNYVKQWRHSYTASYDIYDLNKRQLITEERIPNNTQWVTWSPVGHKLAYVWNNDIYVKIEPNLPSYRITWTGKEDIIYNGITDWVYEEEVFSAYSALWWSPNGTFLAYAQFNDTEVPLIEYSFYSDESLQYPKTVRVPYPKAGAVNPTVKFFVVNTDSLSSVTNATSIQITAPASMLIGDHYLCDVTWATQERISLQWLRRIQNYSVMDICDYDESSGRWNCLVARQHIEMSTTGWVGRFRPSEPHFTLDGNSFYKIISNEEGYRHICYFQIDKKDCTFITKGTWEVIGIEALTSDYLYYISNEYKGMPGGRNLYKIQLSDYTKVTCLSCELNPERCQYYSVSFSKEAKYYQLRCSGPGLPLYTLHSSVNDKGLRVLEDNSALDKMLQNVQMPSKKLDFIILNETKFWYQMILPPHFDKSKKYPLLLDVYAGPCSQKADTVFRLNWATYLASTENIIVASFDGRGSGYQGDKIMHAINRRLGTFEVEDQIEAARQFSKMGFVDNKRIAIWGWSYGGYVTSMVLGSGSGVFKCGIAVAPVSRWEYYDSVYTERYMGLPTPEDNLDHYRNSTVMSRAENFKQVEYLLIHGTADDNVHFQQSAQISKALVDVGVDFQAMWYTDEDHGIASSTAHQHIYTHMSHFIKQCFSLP

On to `NCc1c(-c2ccc(Cl)cc2Cl)ncn1Cc1ccccc1` [Example 24b, (1-benzyl-4-(2,4-dichlorophenyl)-1H-imidazol-5-yl)methanamine], for which the IC50 in series [1] worked out at 123 nM. The molecule further had a Ki in series [2] of 4.74 nM. Moreover, in series [3], the “LD50 Viability SY5Y” value is reported as 0.11 mM and the “LD50 cytotox SY5Y” value is reported as 0.19 mM. In series [4], this molecule gave a Papp A→B of 37.5 ×10⁻⁶ cm/s and a Papp B→A of 41.7 ×10⁻⁶ cm/s. The Transport entry in series [5] was “good, passive”. The IC50 in series [6] was 900 nM.
Molecule `NCc1c(-c2ccc(Cl)cc2Cl)ncn1Cc1cccnc1` [Example 121b, (4-(2,4-dichlorophenyl)-1-((pyridin-3-yl)methyl)-1H-imidazol-5-yl)methanamine] yielded an IC50 in series [1] of 83 nM. Further, the inhibition constant (Ki) in series [2] turned out to be 2.96 nM. In addition, in series [3], the “LD50 Viability SY5Y” value is recorded as 0.46 mM and the “LD50 cytotox SY5Y” value is 0.68 mM. In series [4], this molecule gave a Papp A→B of 36.4 ×10⁻⁶ cm/s and a Papp B→A of 40.4 ×10⁻⁶ cm/s. The Transport result in series [5] is on record as “good, passive”. Also, the IC50 in series [6] is 4600 nM.
For `NCc1c(-c2ccc(Cl)cc2Cl)ncn1Cc1ccccn1` [Example 39b], the IC50 in series [1] was found to be 59 nM. For the same molecule, in series [2], the affinity corresponds to a Ki of 5.68 nM. Moreover, in series [3], the “LD50 Viability SY5Y” value came to 0.29 mM and the “LD50 cytotox SY5Y” value turned out to be 0.60 mM. In series [4], this molecule came in with a Papp A→B of 40.6 ×10⁻⁶ cm/s and a Papp B→A of 42.5 ×10⁻⁶ cm/s. Besides, the Transport result in series [5] was “good, passive”. Also, the IC50 in series [6] was 4600 nM.
Molecule `NCc1c(-c2ccc(Cl)cc2Cl)ncn1Cc1ccsc1` [Example 130b, (4-(2,4-dichlorophenyl)-1-((thiophen-3-yl)methyl)-1H-imidazol-5-yl)methanamine] had an IC50 in series [1] of 62 nM. This molecule showed a Ki in series [2] of 7.69 nM. For the same molecule, in series [3], the “LD50 Viability SY5Y” value came to 0.17 mM and the “LD50 cytotox SY5Y” value came to 0.28 mM. In series [4], this molecule returned a Papp A→B of 40 ×10⁻⁶ cm/s and a Papp B→A of 31.2 ×10⁻⁶ cm/s. The Transport entry in series [5] is “good, passive”.

In general, IC50 refers to the point on the concentration scale where inhibition reaches its midpoint. In general, Ki refers to a measure of affinity in units of concentration, obtained from inhibition or displacement. The low end stands for tighter binding, the high end for weaker binding. As a reminder, the Papp A→B is how fast a substance crosses the layer from the apical side. Usually Papp B→A stands for how fast a substance crosses the layer from the basolateral side.
